These results are taken from patent US11690850B2, “Inhibitors of receptor interacting protein kinase I for the treatment of disease” (Board of Regents, The University of Texas System, priority 2019, dated 2023).

In general, pIC50 refers to −log10 of the IC50, conventionally taken in molar units.

pIC50: −log10 of the molar value. Values joined by “and” are separate entries in the source; they are usually repeats but may differ in a detail not shown here. Equal entries are not always repeated.

RIPK1, sequence (Q13546 1-327): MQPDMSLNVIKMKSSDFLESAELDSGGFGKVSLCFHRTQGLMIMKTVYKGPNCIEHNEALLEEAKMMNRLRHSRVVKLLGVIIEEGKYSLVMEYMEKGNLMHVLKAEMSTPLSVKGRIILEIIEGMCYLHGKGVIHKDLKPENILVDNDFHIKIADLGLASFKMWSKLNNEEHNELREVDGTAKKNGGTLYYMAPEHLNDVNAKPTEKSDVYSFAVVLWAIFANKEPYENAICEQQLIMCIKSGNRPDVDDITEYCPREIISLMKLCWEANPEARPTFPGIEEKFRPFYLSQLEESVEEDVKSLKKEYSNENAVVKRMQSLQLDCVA

One experiment has as its target RIPK1 (Homo sapiens (Human), UniProt Q13546). Description: ADP-Glo Kinase Assay. Type of experiment: biochemical. The settings on record: 5 nM RIPK1 protein, 50 μM ATP, 6 hr reaction, average value across multiple runs. Here is the method:
In order to measure RIPK1 activity the ADP-Glo kinase assay (Promega, Catalog #V7002) was used to measure the conversion of ATP to ADP. This enzymatic assay was performed in a 384-well white, Optiplate (Perkin Elmer, Catalog #6007299) with assay buffer consisting of 50 mM HEPES pH 7.5 (Gibco, Catalog #15630-080), 50 mM NaCl (Teknova, Catalog #S0252), 30 mM MgCl2 (Ambion, Catalog #AM9530G), 1 mM DTT (Santa Cruz Biotechnology, Catalog #sc-29089), 0.05% BSA (Sigma, Catalog #A3059-50G) and 0.02% CHAPS (Sigma, Catalog #C5070-5G). Stock solutions of the test compounds were prepared in 100% DMSO (Sigma, Catalog #D2650) and serially diluted 1:3 using 100% DMSO. Compounds were additionally diluted 1:40 in assay buffer, and 2 μL/well were transferred to the assay plate. 4 μL/well (final concentration of 5 nM) of RIPK1 protein (SignalChem, Catalog #R07-11G-05) diluted in assay buffer and added to the assay plate followed by a 10 minute preincutation at room temperature. 4 μL/well of ATP (Promega, Catalog #V7002) (final concentration of 50 μM) diluted in assay buffer were then added to the assay plate followed by a 6 hr reaction time. Final concentrations of RIPK1 and ATP refer to a 10 μL volume. Luminescence was measured using a BioTek Synergy™ NEO plate reader. IC50 values were calculated using a four-parameter logistic curve fit using Genedata Screener software. Results are shown below in Table 4, where the average value across multiple runs is given.
In the case of `Cc1cc(=O)c(C(=O)Nc2c(C(C)C)n[nH]c2C(C)C)nn1-c1ccccc1` [Example 90, N-(3,5-diisopropyl-1H-pyrazol-4-yl)-6-methyl-4-oxo-1-phenyl-1,4-dihydropyridazine-3-carboxamide], the pIC50 is 4.38. Consider `Cc1cc(=O)c(C(=O)NC2CC2)nn1-c1ccccc1` [Example 91, N-cyclopropyl-6-methyl-4-oxo-1-phenyl-1,4-dihydropyridazine-3-carboxamide], for which the negative-log IC50 (pIC50) is 5.28. The same measure, in the same setting: the result for `Cc1cc(=O)c(C(=O)Nc2cc(F)cc(F)c2)nn1-c1ccccc1` [Example 92, N-(3,5-difluorophenyl)-6-methyl-4-oxo-1-phenyl-1,4-dihydropyridazine-3-carboxamide] reads 6.38. `Cc1cc(=O)c(C(=O)Nc2cccc(F)c2)nn1-c1ccccc1` [Example 93, N-(3-fluorophenyl)-6-methyl-4-oxo-1-phenyl-1,4-dihydropyridazine-3-carboxamide]: the pIC50 is 6.55. Still for that read-out and setting: the result for `Cc1ccnc(NC(=O)c2nn(-c3ccccc3F)c(C)cc2=O)c1` [Example 94, 1-(2-fluorophenyl)-6-methyl-N-(4-methylpyridin-2-yl)-4-oxo-1,4-dihydropyridazine-3-carboxamide] reads 5.20; that for `Cc1cccc(NC(=O)c2nn(-c3ccccc3F)c(C)cc2=O)n1` [Example 95, 1-(2-fluorophenyl)-6-methyl-N-(6-methylpyridin-2-yl)-4-oxo-1,4-dihydropyridazine-3-carboxamide], 5.40. Same read-out and setting: the result for `Cc1cc(=O)c(C(=O)NC(C)C2CC2)nn1-c1ccccc1` (stereo not drawn) [Example 96, N-(1-cyclopropylethyl)-6-methyl-4-oxo-1-phenyl-1,4-dihydropyridazine-3-carboxamide] reads 5.19; that for `Cc1ccc(NC(=O)c2nn(-c3ccccc3)c(C)cc2=O)cc1` [Example 97, 6-methyl-4-oxo-1-phenyl-N-(p-tolyl)-1,4-dihydropyridazine-3-carboxamide], 4.93. Consider `Cc1cc(=O)c(C(=O)NC(c2ccccc2)C2CC2)nn1-c1ccccc1` (stereo not drawn) [Example 98, N-(cyclopropyl(phenyl)methyl)-6-methyl-4-oxo-1-phenyl-1,4-dihydropyridazine-3-carboxamide], for which the pIC50 was 5.45. Same read-out and setting: the result for `Cc1cccc(NC(=O)c2nn(-c3ccccc3)c(C)cc2=O)n1` [Example 99, 6-methyl-N-(6-methylpyridin-2-yl)-4-oxo-1-phenyl-1,4-dihydropyridazine-3-carboxamide] reads 5.46; that for `Cc1cc(=O)c(C(=O)Nc2ccc(Cl)cn2)nn1-c1ccccc1F` [Example 100, N-(5-chloropyridin-2-yl)-1-(2-fluorophenyl)-6-methyl-4-oxo-1,4-dihydropyridazine-3-carboxamide], 4.36.

In the case of `CCn1c(NC(=O)c2nn(-c3ccccc3)c(C)cc2=O)nc2ccccc21` [Example 101, N-(1-ethyl-1H-benzo[d]imidazol-2-yl)-6-methyl-4-oxo-1-phenyl-1,4-dihydropyridazine-3-carboxamide], the negative-log IC50 (pIC50) was 5.33. In the case of `Cc1cc(=O)c(C(=O)Nc2ccccn2)nn1-c1ccccc1Cl` [Example 102, 1-(2-chlorophenyl)-6-methyl-4-oxo-N-(pyridin-2-yl)-1,4-dihydropyridazine-3-carboxamide], the pIC50 was 5.62.

Take `Cc1cc(=O)c(C(=O)Nc2ccccn2)nn1-c1ccc(Cl)cc1` [Example 103, 1-(4-chlorophenyl)-6-methyl-4-oxo-N-(pyridin-2-yl)-1,4-dihydropyridazine-3-carboxamide]: the pIC50 was 5.30. On the same count and under the same terms, the result for `Cc1cc(=O)c(C(=O)NCC2CCC2)nn1-c1ccccc1` [Example 104, N-(cyclobutylmethyl)-6-methyl-4-oxo-1-phenyl-1,4-dihydropyridazine-3-carboxamide] reads 5.08; that for `Cc1noc(C(C)NC(=O)c2nn(-c3ccccc3)c(C)cc2=O)n1` (stereo not drawn) [Example 105, 6-methyl-N-(1-(3-methyl-1,2,4-oxadiazol-5-yl)ethyl)-4-oxo-1-phenyl-1,4-dihydropyridazine-3-carboxamide], 4.43. Same read-out and setting: the result for `Cc1cc(=O)c(C(=O)Nc2ccccn2)nn1-c1ccccc1` [Example 106, 6-methyl-4-oxo-1-phenyl-N-(pyridin-2-yl)-1,4-dihydropyridazine-3-carboxamide] reads 5.75.

For `Cc1cccc(NC(=O)c2nn(-c3ccccc3F)c(C)cc2=O)c1` [Example 107, 1-(2-fluorophenyl)-6-methyl-4-oxo-N-(m-tolyl)-1,4-dihydropyridazine-3-carboxamide], the pIC50 is 4.69. On the same count and under the same terms, the result for `Cc1cc(=O)c(C(=O)Nc2ccccc2F)nn1-c1ccccc1` [Example 108, N-(2-fluorophenyl)-6-methyl-4-oxo-1-phenyl-1,4-dihydropyridazine-3-carboxamide] reads 4.54. On the same count and under the same terms, the result for `Cc1cc(=O)c(C(=O)Nc2ccc(F)cc2)nn1-c1ccccc1` [Example 109, N-(4-fluorophenyl)-6-methyl-4-oxo-1-phenyl-1,4-dihydropyridazine-3-carboxamide] reads 4.55; that for `C#CCNC(=O)c1nn(-c2ccccc2)c(C)cc1=O` [Example 110, 6-methyl-4-oxo-1-phenyl-N-(prop-2-yn-1-yl)-1,4-dihydropyridazine-3-carboxamide], 5.80; that for `Cc1cc(NC(=O)c2nn(-c3ccccc3)c(C)cc2=O)sn1` [Example 111, 6-methyl-N-(3-methylisothiazol-5-yl)-4-oxo-1-phenyl-1,4-dihydropyridazine-3-carboxamide], 4.41.

Take `Cc1noc(C2CC2)c1NC(=O)c1nn(-c2ccccc2)c(C)cc1=O` [Example 112, N-(5-cyclopropyl-3-methylisoxazol-4-yl)-6-methyl-4-oxo-1-phenyl-1,4-dihydropyridazine-3-carboxamide]: the pIC50 is 6.10. The same measure, in the same setting: the result for `Cc1cc(=O)c(C(=O)N2CCC(Oc3ccccn3)C2)nn1-c1ccccc1` (stereo not drawn) [Example 113, 6-methyl-1-phenyl-3-(3-(pyridin-2-yloxy)pyrrolidine-1-carbonyl)pyridazin-4(1H)-one] reads 4.53. Same read-out and setting: the result for `Cc1ccnc(NC(=O)c2nn(-c3ccccc3)c(C)cc2=O)c1` [Example 114, 6-methyl-N-(4-methylpyridin-2-yl)-4-oxo-1-phenyl-1,4-dihydropyridazine-3-carboxamide] reads 5.25 and 5.12; that for `Cc1cc(=O)c(C(=O)Nc2ccncc2)nn1-c1ccccc1` [Example 115, 6-methyl-4-oxo-1-phenyl-N-(pyridin-4-yl)-1,4-dihydropyridazine-3-carboxamide], 5.54 and 5.46. The same measure, in the same setting: the result for `Cc1cc(=O)c(C(=O)Nc2cnns2)nn1-c1ccccc1` [Example 116, 6-methyl-4-oxo-1-phenyl-N-(1,2,3-thiadiazol-5-yl)-1,4-dihydropyridazine-3-carboxamide] reads 5.07 and 4.76; that for `Cc1cc(=O)c(C(=O)Nc2c(C(C)C)cccc2C(C)C)nn1-c1ccccc1` [Example 117, N-(2,6-diisopropylphenyl)-6-methyl-4-oxo-1-phenyl-1,4-dihydropyridazine-3-carboxamide], 5.92.

The subject of the next experiment is human monocytic cell line U937. Nature of the experiment: Human U937 Cellular Necroptosis Assay. Type of experiment: cell-based. Particulars: U-937; U937 cells stimulated with 25 ng/mL human TNFalpha and 25 μM z-VAD-FMK, 22 hr, viability by Cell Titer-Glo 2.0; average value across multiple runs; read-out: hU937 IC50. Here is the method: Human U937 Cellular Necroptosis Assay
The human monocytic cell line U937 (CRL-1593.2) was purchased from ATCC. The cells were routinely maintained in RPMI-1640 Medium (Gibco, Catalog #11875-093) supplemented with 10% heat inactivated fetal bovine serum (Gibco, Catalog #16140-071), 100 units/mL penicillin and 100 μg/mL streptomycin (Gibco, Catalog #15140-122), in a humidified incubator (37° C., 5% CO2). For the assay, cells were resuspended in RPMI-1640 phenol red free Media (Gibco, Catalog #11835-030) supplemented with 10% fetal bovine serum (Sigma, Catalog #F2442), 100 units/mL penicillin and 100 ug/mL streptomycin. Cells were stimulated with 25 ng/mL human TNFalpha (Cell Sciences, Catalog #CSI15659B) and 25 μM z-VAD-FMK (R&D Systems, Catalog #FMK001) followed by seeding 5000 cells per well in a volume of 40 μL to a white, CulturPlate-384 (Perkin Elmer, Catalog #6007680). Stock solutions of the test compounds were prepared in 100% DMSO (Sigma, Catalog #D2650) and serially diluted 1:3 using 100% DMSO. Compounds were additionally diluted 1:40 in assay medium, and 10 μL/well was transferred to the plate. Following the compound addition the plate was incubated at 37° C. and 5% CO2 for 22 hr. After 22 hr, viability was assessed with the addition of 20 μL of Cell Titer-Glo 2.0 (Promega, Catalog #G9243). The tissue culture plate was shaken on an orbital shaker at 300 RPM for 15 minutes at room temperature in the dark. Luminescence was measured using a PerkinElmer Envision™ plate reader. IC50 values were calculated using a four-parameter logistic curve fit using Genedata Screener software. Results are shown below in Table 5, where the average value across multiple runs is given.
(ATP-based viability assays read luminescence as a measure of living cells.)
Regarding `Cc1cc(=O)c(C(=O)N[C@H]2COc3cccnc3NC2=O)nn1-c1ccccc1` [Example 63, (S)-6-methyl-4-oxo-N-(4-oxo-2,3,4,5-tetrahydropyrido[3,2-b][1,4]oxazepin-3-yl)-1-phenyl-1,4-dihydropyridazine-3-carboxamide], the negative-log IC50 (pIC50) was 6.32. In the case of `Cc1cc(=O)c(C(=O)NC2CCc3ccccc3-n3ccnc32)nn1-c1ccccc1` (stereo not drawn) [Example 73, N-(5,6-dihydro-4H-benzo[f]imidazo[1,2-a]azepin-4-yl)-6-methyl-4-oxo-1-phenyl-1,4-dihydropyridazine-3-carboxamide], the pIC50 was 6.53.
